Reference: ChEMBL document CHEMBL3046607, “Synthesis and Herbicidal Activity of New 1-Alkyl-3-aryloxypyrazole-4-carboxamide Derivatives” (J Pestic Sci, 2004)
Calls of active or inactive are those of the source. The rule behind the calls is not given here.

What was measured:
[1] = tested on: Elatine triandra; assay: Pre-emergence herbicidal activity against Elatine triandra at 500 g a.i/ha measured after 14 days; format: functional, organism-based
[2] = tested on: Cyperus difformis; assay: Pre-emergence herbicidal activity against Cyperus difformis at 500 g a.i/ha measured after 14 days; format: functional, organism-based
[3] = tested on: Lindernia procumbens; assay: Pre-emergence herbicidal activity against Lindernia procumbens at 500 g a.i/ha measured after 14 days; format: functional, organism-based
[4] = tested on: Schoenoplectiella juncoides; assay: Post-emergence herbicidal activity against Schoenoplectiella juncoides assessed as bleaching of stem/leaf parts; format: functional, organism-based; also: test concentration or dose not given here
[5] = tested on: Ammannia multiflora; assay: Post-emergence herbicidal activity against Ammannia multiflora assessed as bleaching of stem/leaf parts; format: functional, organism-based
[6] = tested on: Pontederia vaginalis; assay: Pre-emergence herbicidal activity against Monochoria vaginalis at 500 g a.i/ha measured after 14 days; format: functional, organism-based
[7] = tested on: Schoenoplectiella juncoides; assay: Pre-emergence herbicidal activity against Schoenoplectiella juncoides at 500 g a.i/ha measured after 14 days; format: functional, organism-based
[8] = tested on: Rotala indica; assay: Pre-emergence herbicidal activity against Rotala indica assessed as bleaching of stem/leaf parts; format: functional, organism-based
[9] = tested on: Oryza sativa; assay: Phytotoxicity against Oryza sativa cv. Koshihikari (rice) at 500 g a.i/ha measured after 14 days; format: organism-based; details: in vivo, 336 h
[10] = tested on: Echinochloa oryzicola; assay: Pre-emergence herbicidal activity against Echinochloa oryzicola assessed as bleaching of stem/leaf parts; format: functional, organism-based
[11] = tested on: Schoenoplectiella juncoides; assay: Pre-emergence herbicidal activity against Schoenoplectiella juncoides assessed as bleaching of stem/leaf parts; format: functional, organism-based
[12] = tested on: Cyperus difformis; assay: Post-emergence herbicidal activity against Cyperus difformis assessed as bleaching of stem/leaf parts; format: functional, organism-based; also: test concentration or dose not given here
[13] = tested on: Echinochloa oryzicola; assay: Post-emergence herbicidal activity against Echinochloa oryzicola assessed as bleaching of stem/leaf parts; format: functional, organism-based
[14] = tested on: Rotala indica; assay: Post-emergence herbicidal activity against Rotala indica assessed as bleaching of stem/leaf parts; format: functional, organism-based
[15] = tested on: Echinochloa oryzicola; assay: Pre-emergence herbicidal activity against Echinochloa oryzicola at 500 g a.i/ha measured after 14 days; format: functional, organism-based
[16] = tested on: Rotala indica; assay: Pre-emergence herbicidal activity against Rotala indica at 500 g a.i/ha measured after 14 days; format: functional, organism-based
[17] = tested on: Lindernia procumbens; assay: Post-emergence herbicidal activity against Lindernia procumbens assessed as bleaching of stem/leaf parts; format: functional, organism-based; also: test concentration or dose not given here
[18] = tested on: Pontederia vaginalis; assay: Pre-emergence herbicidal activity against Monochoria vaginalis assessed as bleaching of stem/leaf parts; format: functional, organism-based
[19] = tested on: Ammannia multiflora; assay: Pre-emergence herbicidal activity against Ammannia multiflora at 500 g a.i/ha measured after 14 days; format: functional, organism-based
[20] = tested on: Ammannia multiflora; assay: Pre-emergence herbicidal activity against Ammannia multiflora assessed as bleaching of stem/leaf parts; format: functional, organism-based
[21] = tested on: Elatine triandra; assay: Pre-emergence herbicidal activity against Elatine triandra assessed as bleaching of stem/leaf parts; format: functional, organism-based
[22] = tested on: Pontederia vaginalis; assay: Post-emergence herbicidal activity against Monochoria vaginalis assessed as bleaching of stem/leaf parts; format: functional, organism-based
[23] = tested on: Lindernia procumbens; assay: Pre-emergence herbicidal activity against Lindernia procumbens assessed as bleaching of stem/leaf parts; format: functional, organism-based
[24] = tested on: Elatine triandra; assay: Post-emergence herbicidal activity against Elatine triandra assessed as bleaching of stem/leaf parts; format: functional, organism-based; also: test concentration or dose not given here
[25] = tested on: Cyperus difformis; assay: Pre-emergence herbicidal activity against Cyperus difformis assessed as bleaching of stem/leaf parts; format: functional, organism-based
[26] = tested on: Ammannia multiflora; assay: Pre-emergence herbicidal activity against Ammannia multiflora at 33 g a.i/ha measured after 14 days; format: functional, organism-based
[27] = tested on: Pontederia vaginalis; assay: Pre-emergence herbicidal activity against Monochoria vaginalis at 33 g a.i/ha measured after 14 days; format: functional, organism-based
[28] = tested on: Schoenoplectiella juncoides; assay: Pre-emergence herbicidal activity against Schoenoplectiella juncoides at 33 g a.i/ha measured after 14 days; format: functional, organism-based
[29] = tested on: Cyperus difformis; assay: Pre-emergence herbicidal activity against Cyperus difformis at 33 g a.i/ha measured after 14 days; format: functional, organism-based
[30] = tested on: Elatine triandra; assay: Pre-emergence herbicidal activity against Elatine triandra at 33 g a.i/ha measured after 14 days; format: functional, organism-based
[31] = tested on: Rotala indica; assay: Pre-emergence herbicidal activity against Rotala indica at 33 g a.i/ha measured after 14 days; format: functional, organism-based
[32] = tested on: Lindernia procumbens; assay: Pre-emergence herbicidal activity against Lindernia procumbens at 33 g a.i/ha measured after 14 days; format: functional, organism-based
[33] = tested on: Echinochloa oryzicola; assay: Pre-emergence herbicidal activity against Echinochloa oryzicola at 33 g a.i/ha measured after 14 days; format: functional, organism-based
[34] = tested on: Oryza sativa; assay: Phytotoxicity against Oryza sativa cv. Koshihikari (rice) at 33 g a.i/ha measured after 14 days; format: organism-based; details: in vivo, 336 h

| Structure (SMILES) | Activity [1] | Activity [2] | Activity [3] | Activity [4] | Activity [5] | Activity [6] | Activity [8] | Activity [10] | Activity [11] | Activity [12] | Activity [13] | Activity [14] | Activity [17] | Activity [18] | Activity [20] | Activity [21] | Activity [22] | Activity [23] | Activity [24] | Activity [25] | also measured |
| --- | --- | --- | --- | --- | --- | --- | --- | --- | --- | --- | --- | --- | --- | --- | --- | --- | --- | --- | --- | --- | --- |
| Cn1cc(NC(=O)c2ccc(F)cc2F)c(OCc2cccc(C(F)(F)F)c2)n1 | Active | Active | Active | Active | Active | Active | Active | Active | Active | Active | Active | Active | Active | Active | Active | Active | Active | Active | Active | Active | Activity [7]: Active; Activity [9]: Non-toxic; Activity [15]: Active; Activity [16]: Active; Activity [19]: Active |
| CCCN(CC)C(=O)c1cn(C)nc1Oc1cccc(C(F)(F)F)c1 | inactive | inactive | inactive | Active | Active | inactive | Active | Active | Active | Active | Active | Active | Active | Active | Active | Active | Active | Active | Active | Active | Activity [7]: inactive; Activity [9]: Non-toxic; Activity [15]: inactive; Activity [16]: inactive; Activity [19]: inactive |
| Cn1cc(NC(=O)c2ccc(F)cc2)c(Oc2cccc(C(F)(F)F)c2)n1 | inactive | inactive | inactive | Active | Active | inactive | Active | Active | Active | Active | Active | Active | Active | Active | Active | Active | Active | Active | Active | Active | Activity [7]: inactive; Activity [9]: Non-toxic; Activity [15]: inactive; Activity [16]: inactive; Activity [19]: inactive |
| Cn1cc(C(=O)N2CCCC2)c(Oc2cccc(C(F)(F)F)c2)n1 | inactive | inactive | inactive | Active | Active | inactive | Active | Active | Active | Active | Active | Active | Active | Active | Active | Active | Active | Active | Active | Active | Activity [7]: inactive; Activity [9]: Non-toxic; Activity [15]: inactive; Activity [16]: inactive; Activity [19]: inactive |
| Cn1cc(C(=O)NCC2CCCO2)c(Oc2cccc(C(F)(F)F)c2)n1 (stereo not given) | inactive | inactive | inactive | Active | Active | inactive | Active | Active | Active | Active | Active | Active | Active | Active | Active | Active | Active | Active | Active | Active | Activity [7]: inactive; Activity [9]: Non-toxic; Activity [15]: inactive; Activity [16]: inactive; Activity [19]: inactive |
| Cn1cc(C(=O)Nc2ccccc2F)c(Oc2cccc(C(F)(F)F)c2)n1 | – | – | – | Active | Active | – | Active | Active | Active | Active | Active | Active | Active | Active | Active | Active | Active | Active | Active | Active | Activity [26]: Active; Activity [27]: Active; Activity [28]: inactive; Activity [29]: Active; Activity [30]: Active; Activity [31]: Active; Activity [32]: Active; Activity [33]: Active; Activity [34]: Non-toxic |
| Cn1cc(C(=O)Nc2ccc(F)cc2F)c(Oc2ccc(Br)c(C(F)(F)F)c2)n1 | – | – | – | Active | Active | – | Active | Active | Active | Active | Active | Active | Active | Active | Active | Active | Active | Active | Active | Active | Activity [26]: Active; Activity [27]: Active; Activity [28]: inactive; Activity [29]: Active; Activity [30]: Active; Activity [31]: Active; Activity [32]: Active; Activity [33]: inactive; Activity [34]: Non-toxic |
| CCCCn1cc(C(=O)Nc2ccc(F)cc2F)c(Oc2cccc(C(F)(F)F)c2)n1 | – | – | – | Active | Active | – | Active | Active | Active | Active | Active | Active | Active | Active | Active | Active | Active | Active | Active | Active | Activity [26]: inactive; Activity [27]: inactive; Activity [28]: inactive; Activity [29]: inactive; Activity [30]: inactive; Activity [31]: inactive; Activity [32]: inactive; Activity [33]: inactive; Activity [34]: Non-toxic |
| Cc1ccccc1NC(=O)c1cn(C)nc1Oc1cccc(C(F)(F)F)c1 | – | – | – | Active | Active | – | Active | Active | Active | Active | Active | Active | Active | Active | Active | Active | Active | Active | Active | Active | Activity [26]: Active; Activity [27]: Active; Activity [28]: inactive; Activity [29]: Active; Activity [30]: Active; Activity [31]: Active; Activity [32]: Active; Activity [33]: inactive; Activity [34]: Non-toxic |
